Key:
[1] = 2.67 g/day for 14 days, patients with a herniated disc; cited from earlier work
[2] = animals injected with 0.3 nmol; cited from earlier work
[3] = system: putrescine, spermidine and spermine; test: Tumour levels of polyamines; type: in vivo, male C57BL/6 mice; details: for decrease of the tumour level of putrescine / decrease of the tumour level of spermidine / decrease of the tumour level of spermine: relative to diet containing a normal level of polyamines
Protocol: The level of polyamines is measured in the tumour formed at the site of inoculation of the Lewis carcinoma cells. […] After incubation for at least 16 h at 4° C., the cells are centrifuged for 15 minutes at 3500 rpm at 4° C. The supernatant that contains the polyamines is removed and is used for determination of the polyamines. The polyamines are determined by the method described previously (Seiler N et al., 1996, Cancer Research, 56, 5624-5630). The three principal polyamines present in mammals (putrescine, spermidine and spermine) were determined for the ten groups of mice that had each received different nutrition. The results are illustrated in FIG. 3.

ODC = biological target: T1, ODC (Homo sapiens, UniProt P11926); details: renal cells; cited from earlier work
T1 sequence (P11926 1-461): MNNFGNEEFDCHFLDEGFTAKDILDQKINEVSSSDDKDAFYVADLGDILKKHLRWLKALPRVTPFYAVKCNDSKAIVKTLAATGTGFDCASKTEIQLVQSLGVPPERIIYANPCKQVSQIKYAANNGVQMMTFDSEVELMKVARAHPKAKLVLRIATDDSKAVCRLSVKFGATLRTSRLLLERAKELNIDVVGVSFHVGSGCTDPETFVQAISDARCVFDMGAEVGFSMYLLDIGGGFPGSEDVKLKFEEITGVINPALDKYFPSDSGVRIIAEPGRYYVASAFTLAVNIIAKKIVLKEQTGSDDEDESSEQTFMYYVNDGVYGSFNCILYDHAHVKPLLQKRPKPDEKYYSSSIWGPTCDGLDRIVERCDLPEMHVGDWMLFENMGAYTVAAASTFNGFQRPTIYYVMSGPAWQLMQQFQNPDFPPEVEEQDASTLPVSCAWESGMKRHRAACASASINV

[4] = system: Lewis lung carcinoma (3LL); test: Tumour growth (tumour volume), Example 1; type: in vivo, male C57BL/6 mice
Protocol: Male C57BL/6 mice, aged 9 weeks and weighing 20 g (Janvier breeding station, Le Genest St Isle, France), are acclimatized for 1 week before the start of the study. Handling of the animals is carried out in accordance with the ethical directives for experiments and according to the recommendations of the European Biomedical Research Association. Cells from Lewis lung carcinoma (3LL) were obtained from the ECACC (European Collection of Cell Cultures) and grafted by intramuscular injection in the hind paws of male C57BL/6 mice by the method described previously (Hergueux J. et al., Exp. […] The grafted mice are distributed randomly in the cages in groups of 5 individuals. The tumour becomes palpable some days after grafting took place. […] Cancer, 1984, 34(2), 277-281).

[5] = system: Lewis lung carcinoma (3LL); test: Pulmonary metastatic invasion; type: in vivo, male C57BL/6 mice; details: for additional benefit in terms of metastatic process: added to the diet depleted of cadaverine, putrescine, spermidine and spermine
Protocol: Cells from Lewis lung carcinoma (3LL) were obtained from the ECACC (European Collection of Cell Cultures) and grafted by intramuscular injection in the hind paws of male C57BL/6 mice by the method described previously (Hergueux J. et al., Exp. […] The grafted mice are distributed randomly in the cages in groups of 5 individuals. […] The metastatic dissemination is expressed as percentage invasion relative to the total surface area of the lungs. The percentage metastatic invasion was measured in the mice of the ten groups described above, each having received different nutrition.

[6] = intrathecal injection, diabetic rats; cited from earlier work
[7] = system: cell lines from hepatocarcinomas; details: in vitro, 10 μm to 1 mM; cited from earlier work
noradrenaline release = details: intravenous injection, 1 to 100 mg/kg; cited from earlier work
Weight of the spleen = type: in vivo, male C57BL/6 mice
Source text: The animals are euthanized, then the spleen is removed from the mice and weighed using a precision balance. In addition to the ten groups of mice that each received a different diet, as described above, an eleventh group of animals was included for this study. These were male C57BL/6 mice having the same basic physiological characteristics as the mice in the other ten groups but that had not received grafts of Lewis carcinoma cells.

[8] = system: Lewis lung carcinoma (3LL); test: Tumour growth (tumour volume) in combination with an anticancer drug, Example 2; type: in vivo, male C57BL/6 mice
Protocol: Male C57BL/6 mice, aged 9 weeks and weighing 20 g (Janvier breeding station, Le Genest St Isle, France), are acclimatized for 1 week before the start of the study. Handling of the animals is carried out in accordance with the ethical directives for experiments and according to the recommendations of the European Biomedical Research Association.
After 20 days, the tumour cells are collected and dispersed in PBS, counted and diluted to reach 0.5×10^6 cells/100 μL, before being grafted in the right hind paw of the mice. The grafted mice are distributed randomly in the cages in groups of 5 individuals.
The tumour becomes palpable some days after the grafting took place. The animals are sacrificed 19 days after grafting the tumour cells.
The treatment is set up 6 days after grafting, when the tumour is palpable, and is administered 7 days a week and comprises the intake ad libitum of the normal nutrition or of the test solutes as well as drinking water.
The animal model (C57BL/6 mouse) and the tumour model (Lewis carcinoma) are described above. The mice are grafted with 0.5×10^6 tumour cells, by intramuscular injection in one of the hind paws.

[9] = depleted diet + agmatine 18.4 mg/kg of food
[10] = depleted diet + agmatine 184 mg/kg of food
[11] = depleted diet + agmatine 1840 mg/kg of food
[12] = cyclophosphamide (CY) 9 mg·kg^−1·week^−1
[13] = cyclophosphamide (CY) 90 mg·kg^−1·week^−1
[14] = tumour, neomycin based on a diet depleted of cadaverine, putrescine, spermidine and spermine

Compound: N=C(N)NCCCCN.O=S(=O)(O)O [agmatine sulphate]
- perception of pain [1]: attenuated perception of pain

Compound: N=C(N)NCCCCN [agmatine]
- perception of pain (allodynia) [2]: anti-allodynic effect
- decrease of the tumour level of putrescine [3, 9]: 35%
- decrease of the tumour level of spermidine [3, 9]: 10%
- decrease of the tumour level of spermine [3, 9]: 31%
- decrease of the tumour level of putrescine [3, 10]: 14%
- decrease of the tumour level of spermidine [3, 10]: 12%
- decrease of the tumour level of spermine [3, 10]: 24%
- decrease of the tumour level of putrescine [3, 11]: 50%
- decrease of the tumour level of spermidine [3, 11]: 10%
- decrease of the tumour level of spermine [3, 11]: 16%
- inhibition of ODC / synthesis of polyamines (ODC): dose-dependent inhibition of ODC
- increase of the antitumour effect of the diet depleted of cadaverine, putrescine, spermidine and spermine ([4]; agmatine 18.4 mg/kg of food): 8%
- increase of the antitumour effect of the diet depleted of cadaverine, putrescine, spermidine and spermine ([4]; agmatine 184 mg/kg of food): 3%
- increase of the antitumour effect of the diet depleted of cadaverine, putrescine, spermidine and spermine ([4]; agmatine 1840 mg/kg of food): 13%
- additional benefit in terms of metastatic process [5]: does not appear to bring any additional benefit
- tactile or thermal allodynia and hyperalgesia [6]: suppresses tactile or thermal allodynia as well as hyperalgesia
- cell cycle [7]: stopping of the cancer cells in phase G2/M of the cell cycle
- blood pressure (noradrenaline release): decrease in blood pressure
- additional effect on the weight of the spleen (Weight of the spleen; agmatine added to the depleted diet, regardless of the dose): no additional effect

Compound: O=P1(N(CCCl)CCCl)NCCCO1 (stereo not drawn) [cyclophosphamide]
- Monitoring of tumour volume (in cm^3) D0 [8, 12]: 0 cm^3
- Monitoring of tumour volume (in cm^3) D0 [8, 13]: 0 cm^3
- Monitoring of tumour volume (in cm^3) D2 [8, 12]: 0.08 cm^3
- Monitoring of tumour volume (in cm^3) D2 [8, 13]: 0.02 cm^3
- Monitoring of tumour volume (in cm^3) D5 [8, 12]: 0.2 cm^3
- Monitoring of tumour volume (in cm^3) D5 [8, 13]: 0.05 cm^3
- Monitoring of tumour volume (in cm^3) D8 [8, 12]: 0.296 cm^3
- Monitoring of tumour volume (in cm^3) D8 [8, 13]: 0.074 cm^3
- Monitoring of tumour volume (in cm^3) D10 [8, 12]: 0.64 cm^3
- Monitoring of tumour volume (in cm^3) D10 [8, 13]: 0.16 cm^3
- Monitoring of tumour volume (in cm^3) D12 [8, 12]: 1.2 cm^3
- Monitoring of tumour volume (in cm^3) D12 [8, 13]: 0.3 cm^3
- Monitoring of tumour volume (in cm^3) D15 [8, 12]: 2.64 cm^3
- Monitoring of tumour volume (in cm^3) D15 [8, 13]: 0.66 cm^3
- Monitoring of tumour volume (in cm^3) D18 [8, 12]: 3.0 cm^3
- Tumour volume on D18 (% relative to UAR) [8, 12]: −20%
- Monitoring of tumour volume (in cm^3) D18 [8, 13]: 0.7 cm^3
- Tumour volume on D18 (% relative to UAR) [8, 13]: −81%

Compound: neomycin
- decrease in the level of putrescine ([3]; tumour, based on a normal diet): 17%
- effect on the level of spermidine ([3]; tumour, based on a normal diet): no effect
- increase in the level of spermine ([3]; tumour, based on a normal diet): 7%
- decrease in the level of spermine [3, 14]: 5%
- increase in the level of putrescine [3, 14]: 17%
- increase in the level of spermidine [3, 14]: 24%
- evolution of tumour volume ([4]; neomycin 2 mg/ml in drinking water, diet containing a normal level of polyamines): no effect
- mean value of pulmonary metastatic invasion ([5]; 19 days after grafting, no agmatine, neomycin where given 2 mg/ml in drinking water): 11%
- additional benefit in terms of metastatic process [5]: does not lead to any additional benefit
- decrease in metastatic invasion ([5]; relative to mice on a diet containing a normal level of polyamines without antibiotic): 60%
- mean value of the weight of the spleen (Weight of the spleen; grafted mice, 19 days after grafting, no agmatine, neomycin where given 2 mg/ml in drinking water): 151 mg
- effect of neomycin on the weight of the spleen (Weight of the spleen; groups 2, 4 and 6 (normal diet; depleted diet; depleted diet + agmatine 18.4 mg/kg of food)): decrease in the weight of the spleen
- effect of neomycin on the weight of the spleen (Weight of the spleen; groups 8 and 10 (depleted diet + agmatine 184 and 1840 mg/kg of food)): increase in the weight of the spleen

From patent US20150005387A1, “COMPOSITION CONTAINING AGMATINE, AND USES THEREOF IN PREPARING DRUGS OR NEUTRACEUTICAL SUBSTANCES” (priority 2012, published 2015)
